Activity calls are given as the source filed them.
Assays:
661W [1] = assay: Cytoprotective effect against H2O2-induced oxidative stress in mouse 661W cells assessed as increase in acetylated alpha-tubulin level at 10 to 30 uM incubated for 24 hrs followed by H2O2 treatment for 3 hrs by immunofluorescence analysis; format: functional, cell-based; details: dose 10-30 µM, time 27.0 hrs
661W [2] = assay: Cytoprotective effect against H2O2-induced oxidative stress in mouse 661W cells assessed as increase in acetylated alpha-tubulin level incubated for 24 hrs followed by H2O2 treatment for 3 hrs by Western blot analysis; format: functional, cell-based; details: dose 10-30 µM, time 27.0 hrs
Mus musculus [3] = assay: Upregulation of ARR3 mRNA level in eyes of C57BL/6J mouse model harboring rd10 mutant at 5 to 30 uM, IVT administered bilaterally measured after 5 days by RT-PCR analysis; format: functional, tissue-based; details: Eye, dose 5-30 µM, time 5.0 day
Mus musculus [4] = assay: Upregulation of GNAT2 mRNA level in eyes of C57BL/6J mouse model harboring rd10 mutant at 5 to 30 uM, IVT administered bilaterally measured after 5 days by RT-PCR analysis; format: functional, tissue-based; details: Eye, dose 5-30 µM, time 5.0 day
Cytochrome P450 1A = target: T1, Cytochrome P450 1A (Homo sapiens, UniProt P04798+P05177); assay: Inhibition of CYP1A in human liver microsomes using ECOD at 1 to 50 uM measured upto 30 mins by fluorescence based assay; format: ADME, Microsome; details: 0.5 h, dose 1-50 µM
T1 sequence (P04798 whole entry): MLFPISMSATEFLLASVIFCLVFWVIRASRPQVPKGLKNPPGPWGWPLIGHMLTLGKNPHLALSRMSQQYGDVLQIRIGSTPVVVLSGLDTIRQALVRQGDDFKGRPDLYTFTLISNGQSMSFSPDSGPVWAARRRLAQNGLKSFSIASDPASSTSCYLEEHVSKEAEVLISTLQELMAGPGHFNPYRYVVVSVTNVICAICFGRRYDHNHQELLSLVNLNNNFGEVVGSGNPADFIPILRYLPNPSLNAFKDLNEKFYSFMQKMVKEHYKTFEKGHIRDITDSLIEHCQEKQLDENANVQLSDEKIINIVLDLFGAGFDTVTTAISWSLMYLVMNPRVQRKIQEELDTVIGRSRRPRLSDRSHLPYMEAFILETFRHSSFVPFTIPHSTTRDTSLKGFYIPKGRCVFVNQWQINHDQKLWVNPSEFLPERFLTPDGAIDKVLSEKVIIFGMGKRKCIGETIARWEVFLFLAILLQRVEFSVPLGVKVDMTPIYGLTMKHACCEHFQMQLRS
T1 sequence (P05177 whole entry): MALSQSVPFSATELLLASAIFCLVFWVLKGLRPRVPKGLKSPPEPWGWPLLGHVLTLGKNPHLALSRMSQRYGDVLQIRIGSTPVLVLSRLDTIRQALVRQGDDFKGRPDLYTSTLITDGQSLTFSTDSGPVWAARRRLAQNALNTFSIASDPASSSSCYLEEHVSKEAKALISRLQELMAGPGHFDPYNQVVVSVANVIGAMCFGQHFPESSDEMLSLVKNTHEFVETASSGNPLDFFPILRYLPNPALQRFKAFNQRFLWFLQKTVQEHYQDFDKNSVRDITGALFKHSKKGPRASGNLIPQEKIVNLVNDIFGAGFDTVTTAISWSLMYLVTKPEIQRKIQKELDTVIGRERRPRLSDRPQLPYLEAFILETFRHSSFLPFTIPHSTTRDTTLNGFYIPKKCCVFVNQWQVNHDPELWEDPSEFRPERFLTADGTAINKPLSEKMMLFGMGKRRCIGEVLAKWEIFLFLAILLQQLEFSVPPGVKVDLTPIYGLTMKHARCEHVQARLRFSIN

[5] = Metabolic stability in mouse liver microsomes assessed as compound recovery at 10 uM incubated for 60 mins in presence of NADPH by HPLC analysis; format: ADME, Microsome; details: read-out: Stability
[6] = Toxicity in zebrafish larval dye model harboring atp6v0e1/ucd6 assessed as visual impairment at 20 to 100 uM treated for 2 days; set-up: species or system Danio rerio; details: in vivo, 48 h, dose 20-100 µM, time 2 day
Mus musculus [7] = assay: Upregulation of Hsp90b1 mRNA level in eyes of C57BL/6J mouse model harboring rd10 mutant at 5 to 30 uM, IVT administered bilaterally measured after 5 days by RT-PCR analysis; format: functional, tissue-based; details: Eye, dose 5-30 µM, time 5.0 day
Cytochrome P450 = assay: Inhibition of CYP in human liver microsomes using ECOD at 1 to 50 uM measured upto 30 mins by fluorescence based assay; format: ADME, Microsome; details: 0.5 h, dose 1-50 µM
Mus musculus [8] = assay: Rescue of b-wave amplitude in photopic stimulation in eyes of C57BL/6J mouse model harboring rd10 mutant at 5 to 30 uM, IVT administered bilaterally measured after 5 days by ERG analysis; format: functional, tissue-based; details: Eye, dose 5-30 µM, time 5.0 day
Mus musculus [9] = assay: Rescue of scotopic response in eyes of C57BL/6J mouse model harboring rd10 mutant at 5 to 30 uM, IVT administered bilaterally measured after 5 days by ERG analysis; format: functional, tissue-based; details: Eye, dose 5-30 µM, time 5.0 day
[10] = Lipophilicity, logP of compound; format: physicochemical; details: octanol/water
[11] = Toxicity in zebrafish larval dye model harboring atp6v0e1/ucd6 assessed as morphological change in eye at 80 to 100 uM treated for 2 days by toluidine blue staining based analysis; format: tissue-based, Danio rerio; details: in vivo, 48 h, dose 80-100 µM, time 2 day
[12] = Stability of compound at pH 7.4 measured after 24 hrs; format: physicochemical; details: buffer, read-out: Stability
[13] = Inhibition of CYP1A in mouse liver microsomes using ECOD at 1 to 50 uM measured upto 30 mins by fluorescence based assay; format: ADME, Microsome; details: 0.5 h, dose 1-50 µM
Mus musculus [14] = assay: Inhibition of discontinuities in tight junction pattern in eyes of C57BL/6J mouse model harboring rd10 mutant at 30 uM, IVT administered bilaterally measured after 5 days by ZO-1 staining based analysis; format: functional, tissue-based; details: Eye, time 5.0 day
Mus musculus [15] = assay: Upregulation of GNAT1 mRNA level in eyes of C57BL/6J mouse model harboring rd10 mutant at 5 to 30 uM, IVT administered bilaterally measured after 5 days by RT-PCR analysis; format: functional, tissue-based; details: Eye, dose 5-30 µM, time 5.0 day
[16] = Induction of cone cell survival rate in eyes of C57BL/6J mouse model harboring rd10 mutant at 30 uM, IVT administered bilaterally measured after 5 days by fluorescence microscopy relative to control; format: functional, Eye; details: time 5 day
[17] = Inhibition of CYP in mouse liver microsomes using ECOD at 1 to 50 uM measured upto 30 mins by fluorescence based assay; format: ADME, Microsome; details: 0.5 h, dose 1-50 µM
661W [18] = assay: Cytoprotective effect against H2O2-induced oxidative stress in mouse 661W cells assessed as increase in acetylated alpha-tubulin level at 30 uM incubated for 24 hrs followed by H2O2 treatment for 3 hrs by Western blot analysis; format: functional, cell-based; details: time 27.0 hrs
661W [19] = assay: Cytoprotective effect against H2O2-induced oxidative stress in mouse 661W cells assessed as increase in acetylated histone H3 level at 5 uM incubated for 24 hrs followed by H2O2 treatment for 3 hrs by Western blot analysis; format: functional, cell-based; details: time 27.0 hrs
Mus musculus [20] = assay: Upregulation of Nr3c1 mRNA level in eyes of C57BL/6J mouse model harboring rd10 mutant at 5 to 30 uM, IVT administered bilaterally measured after 5 days by RT-PCR analysis; format: functional, tissue-based; details: Eye, dose 5-30 µM, time 5.0 day
Cone cell = assay: Rescue of cone cell morphology in eyes of C57BL/6J mouse model harboring rd10 mutant at 30 uM, IVT administered bilaterally measured after 5 days by IHC analysis; format: functional, tissue-based; details: Eye, time 5.0 day

O=C(NO)c1ccc(CNC(=O)N2CCc3c(c4ccccc4n3Cc3ccccc3)C2)cc1
Not Active: inhibition (INH) (Cytochrome P450 1A) | inhibition (INH) (Cytochrome P450) | inhibition (INH) [13] | inhibition (INH) [17]
> 99%: remaining at 24 h [12]
2.94: logP [10]
87%: remaining at 1 h, 10 µM [5]
17%: Activity [16]
active: Activity (661W [1]) | Activity (661W [2]) Dose-Dependent Effect | Activity (Mus musculus [3]) | Activity (Mus musculus [4]) | Activity (Mus musculus [7]) | Activity (Mus musculus [8]) | Activity (Mus musculus [9]) | inhibition (Mus musculus [14]) | Activity (Mus musculus [15]) | Activity (661W [18]) | Activity (661W [19]) | Activity (Mus musculus [20]) | Activity (Cone cell)
Non-Toxic: Activity [6] | Activity [11]
